Measured values from US11090247B2, “Compositions for protecting the skin from heavy metals and formaldehyde” (FNG RESEARCH CO., LTD., priority 2016, dated 2021).

Experiments:
[1] = Removal test of heavy metals of active ingredients (pig skin, ICP-MS): Cd; conditions: contaminated pig skin
Method: (§1) (1) Preparation of Heavy Metal Contamination Sources and Pig Skin Samples
(§2) A pig was slaughtered, flayed and the bristle was shaved. The pig skin was cut to prepare 5*5 cm size of skin samples respectively.
(§3) The said skin samples were cleanly wiped with wet gauze, and then, added to 50 ml of methanol and extracted by shaking with ultrasonic for 60 min. 50 ml of methanol was further added and mixed. The pig skin samples were removed from the extracted solutions to prepare the test solutions.
(§4) The test solutions were analyzed for heavy metal components using an inductively coupled plasma mass spectrometer (ICP-MS, Xseries™ 2, Thermo Fisher Scientific, UK).

[2] = Formaldehyde removing ability test (GC); conditions: 2.0% formaldehyde solution; for Area (mAU*min) 30 min: formaldehyde GC area after 30 min; for Area (mAU*min) 30 min / Area (mAU*min) 180 min: 3 molar equivalents, room temperature; for Area (mAU*min) 180 min: formaldehyde GC area after 180 min; for Area (mAU*min) Initial: formaldehyde GC area, initial state, 3 molar equivalents of compound
[3] = Removal test of heavy metals of active ingredients (pig skin, ICP-MS): Cu; conditions: contaminated pig skin
Method: as §1, §2, §3, §4

human skin = test: Skin irritation test of active ingredient (patch method, CTFA guidelines); format: in vivo; parameters: key to Degree of irritation: 0–0.1 none, 0.11–0.3 weak, 0.31–0.5 moderate, ≥0.51 strong irritation; conditions: 20 people, patch 24 hours; for Test result(number of subject) (+): (+): Apparent reddening than periphery; for Test result(number of subject) (++): (++): More reddened and swollen than periphery; for Test result(number of subject) (±): (±): slightly reddish than the periphery; for Test result(number of subject) (−): (−): No erythema or particularly no symptoms
Method: A total of 20 people (10 men and 10 women in their 20 s and 30 s) were tested for skin irritation using the patch method according to the guidelines of CTFA (The Cosmetic, Toiletry & Fragrance Association, Inc. Washington, D.C.).
A filter paper disk was placed in an 8 mm diameter, 10 panels of pin chamber.
After 24 hours, the pin chamber was removed, and skin conditions were visually observed.
[Criteria for Skin Irritation]
(−): No erythema or particularly no symptoms; (±): slightly reddish than the periphery; (+): Apparent reddening than periphery; (++): More reddened and swollen than periphery.
[Grade for Skin Irritation]
Degree of irritation 0-0.1: Grade I (unstimulated);
Degree of irritation 0.11-0.3: Grade II (weakly stimulated);
Degree of irritation 0.31-0.5: Grade III (moderately stimulated);
Degree of irritation 0.51 or more: Grade IV (strongly stimulated)

[4] = Removal test of heavy metals of active ingredients (pig skin, ICP-MS): Pb; conditions: contaminated pig skin
Method: as §1, §2, §3, §4

| SMILES | Removal of Heavy metals Cd (%) ([1]; 0.1 wt % aqueous solution) | Removal of Heavy metals Cd (%) ([1]; 0.5 wt % aqueous solution) | Removal of Heavy metals Cd (%) ([1]; 1.0 wt % aqueous solution) | Area (mAU*min) 30 min [2] | Area (mAU*min) 180 min [2] | Area (mAU*min) Initial [2] | Removal of Heavy metals Cu (%) ([3]; 0.1 wt % aqueous solution) | Removal of Heavy metals Cu (%) ([3]; 0.5 wt % aqueous solution) | Removal of Heavy metals Cu (%) ([3]; 1.0 wt % aqueous solution) | Degree of irritation (human skin; 0.1 wt %) | Grade (human skin; 0.1 wt %) | Test result(number of subject) (+) (human skin; 0.1 wt %) | Test result(number of subject) (++) (human skin; 0.1 wt %) | Test result(number of subject) (±) (human skin; 0.1 wt %) | Test result(number of subject) (−) (human skin; 0.1 wt %) | Degree of irritation (human skin; 0.5 wt %) | Grade (human skin; 0.5 wt %) | Test result(number of subject) (+) (human skin; 0.5 wt %) | Test result(number of subject) (++) (human skin; 0.5 wt %) | Test result(number of subject) (±) (human skin; 0.5 wt %) | also measured |
| --- | --- | --- | --- | --- | --- | --- | --- | --- | --- | --- | --- | --- | --- | --- | --- | --- | --- | --- | --- | --- | --- |
| O=C(O)CN1CCCN(CC(=O)O)CCN(CC(=O)O)CCCN(CC(=O)O)CC1 [Embodiment 9, 2,2′,2″,2′″-(1,4,8,11-tetraazacyclotetradecane-1,4,8,11-tetrayl)tetraacetic acid] | 89.1% | 91.3% | 91.9% | 0.182 mAU*min | 0 mAU*min | 0.305 mAU*min | 94.3% | 96.9% | 97.3% | 0 | I (Degree of irritation 0-0.1: Grade I (unstimulated)) | 0 | 0 | 0 | 20 | 0 | I (Degree of irritation 0-0.1: Grade I (unstimulated)) | 0 | 0 | 0 | Test result(number of subject) (−) (human skin; 0.5 wt %): 20; Degree of irritation (human skin; 1.0 wt %): 0.10; Grade (human skin; 1.0 wt %): I (Degree of irritation 0-0.1: Grade I (unstimulated)); Test result(number of subject) (+) (human skin; 1.0 wt %): 0; Test result(number of subject) (++) (human skin; 1.0 wt %): 0; Test result(number of subject) (±) (human skin; 1.0 wt %): 2; Test result(number of subject) (−) (human skin; 1.0 wt %): 18; Removal of Heavy metals Pb (%) ([4]; 0.1 wt % aqueous solution): 88.9%; Removal of Heavy metals Pb (%) ([4]; 0.5 wt % aqueous solution): 91.0%; Removal of Heavy metals Pb (%) ([4]; 1.0 wt % aqueous solution): 91.4% |
| O=C(O)c1ccc(N2CCCN(c3ccc(C(=O)O)cc3)CCN(c3ccc(C(=O)O)cc3)CCCN(c3ccc(C(=O)O)cc3)CC2)cc1 [Embodiment 10, 4,4′,4″,4′″-(1,4,8,11-tetraazacyclotetradecane-1,4,8,11-tetrayl)tetrabenzoic acid] | 85.7% | 90.4% | 91.1% | 0.171 mAU*min | 0 mAU*min | 0.305 mAU*min | 94.1% | 96.0% | 96.5% | 0 | I (Degree of irritation 0-0.1: Grade I (unstimulated)) | 0 | 0 | 0 | 20 | 0 | I (Degree of irritation 0-0.1: Grade I (unstimulated)) | 0 | 0 | 0 | Test result(number of subject) (−) (human skin; 0.5 wt %): 20; Degree of irritation (human skin; 1.0 wt %): 0.05; Grade (human skin; 1.0 wt %): I (Degree of irritation 0-0.1: Grade I (unstimulated)); Test result(number of subject) (+) (human skin; 1.0 wt %): 0; Test result(number of subject) (++) (human skin; 1.0 wt %): 0; Test result(number of subject) (±) (human skin; 1.0 wt %): 1; Test result(number of subject) (−) (human skin; 1.0 wt %): 19; Removal of Heavy metals Pb (%) ([4]; 0.1 wt % aqueous solution): 88.3%; Removal of Heavy metals Pb (%) ([4]; 0.5 wt % aqueous solution): 90.5%; Removal of Heavy metals Pb (%) ([4]; 1.0 wt % aqueous solution): 90.9% |
| O=C(O)c1cncc(N2CCCN(c3cncc(C(=O)O)c3)CCN(c3cncc(C(=O)O)c3)CCCN(c3cncc(C(=O)O)c3)CC2)c1 [Embodiment 11, 5,5′,5″,5′″-(1,4,8,11-tetraazacyclotetradecane-1,4,8,11-tetrayl)tetranicotinic acid] | 86.7% | 88.9% | 91.0% | 0.174 mAU*min | 0 mAU*min | 0.305 mAU*min | 93.8% | 96.0% | 96.8% | 0 | I (Degree of irritation 0-0.1: Grade I (unstimulated)) | 0 | 0 | 0 | 20 | 0 | I (Degree of irritation 0-0.1: Grade I (unstimulated)) | 0 | 0 | 0 | Test result(number of subject) (−) (human skin; 0.5 wt %): 20; Degree of irritation (human skin; 1.0 wt %): 0.10; Grade (human skin; 1.0 wt %): I (Degree of irritation 0-0.1: Grade I (unstimulated)); Test result(number of subject) (+) (human skin; 1.0 wt %): 0; Test result(number of subject) (++) (human skin; 1.0 wt %): 0; Test result(number of subject) (±) (human skin; 1.0 wt %): 2; Test result(number of subject) (−) (human skin; 1.0 wt %): 18; Removal of Heavy metals Pb (%) ([4]; 0.1 wt % aqueous solution): 87.9%; Removal of Heavy metals Pb (%) ([4]; 0.5 wt % aqueous solution): 89.2%; Removal of Heavy metals Pb (%) ([4]; 1.0 wt % aqueous solution): 91.2% |
| O=C(O)c1ccc(N2CCCN(c3ccc(C(=O)O)o3)CCN(c3ccc(C(=O)O)o3)CCCN(c3ccc(C(=O)O)o3)CC2)o1 [Embodiment 12, 5,5′,5″,5′″-(1,4,8,11-tetraazacyclotetradecane-1,4,8,11-tetrayl)tetrakis(furan-2-carboxylic acid)] | 90.1% | 90.7% | 90.9% | 0.170 mAU*min | 0 mAU*min | 0.305 mAU*min | 94.5% | 95.8% | 96.3% | 0 | I (Degree of irritation 0-0.1: Grade I (unstimulated)) | 0 | 0 | 0 | 20 | 0 | I (Degree of irritation 0-0.1: Grade I (unstimulated)) | 0 | 0 | 0 | Test result(number of subject) (−) (human skin; 0.5 wt %): 20; Degree of irritation (human skin; 1.0 wt %): 0.05; Grade (human skin; 1.0 wt %): I (Degree of irritation 0-0.1: Grade I (unstimulated)); Test result(number of subject) (+) (human skin; 1.0 wt %): 0; Test result(number of subject) (++) (human skin; 1.0 wt %): 0; Test result(number of subject) (±) (human skin; 1.0 wt %): 1; Test result(number of subject) (−) (human skin; 1.0 wt %): 19; Removal of Heavy metals Pb (%) ([4]; 0.1 wt % aqueous solution): 89.1%; Removal of Heavy metals Pb (%) ([4]; 0.5 wt % aqueous solution): 90.9%; Removal of Heavy metals Pb (%) ([4]; 1.0 wt % aqueous solution): 91.3% |
| NCCNCCNCCN [Trientine, Triethylenetetramine, reference compound] | 87.3% | 92.4% | 92.3% | 0.168 mAU*min | 0 mAU*min | 0.305 mAU*min | 92.6% | 95.4% | 96.0% | 0 | I (Degree of irritation 0-0.1: Grade I (unstimulated)) | 0 | 0 | 0 | 20 | 0.05 | I (Degree of irritation 0-0.1: Grade I (unstimulated)) | 0 | 0 | 1 | Test result(number of subject) (−) (human skin; 0.5 wt %): 19; Degree of irritation (human skin; 1.0 wt %): 0.15; Grade (human skin; 1.0 wt %): II (Degree of irritation 0.11-0.3: Grade II (weakly stimulated)); Test result(number of subject) (+) (human skin; 1.0 wt %): 0; Test result(number of subject) (++) (human skin; 1.0 wt %): 0; Test result(number of subject) (±) (human skin; 1.0 wt %): 3; Test result(number of subject) (−) (human skin; 1.0 wt %): 17; Removal of Heavy metals Pb (%) ([4]; 0.1 wt % aqueous solution): 89.7%; Removal of Heavy metals Pb (%) ([4]; 0.5 wt % aqueous solution): 92.1%; Removal of Heavy metals Pb (%) ([4]; 1.0 wt % aqueous solution): 92.3% |
